Like-named read-outs stand apart in the source and are kept apart here.
Legend:
[1] = target: T1, SOS1 (Homo sapiens, UniProt Q07889); assay: SOS-catalyzed nucleotide exchange assay (HTRF, SOS1-mediated GTP loading of KRAS G12D); assay type: biochemical; settings: GST-KRAS G12D, HIS-SOS1cat, compound 128 pM to 10 µM; read-out: SOS-catalyzed nucleotide exchange assay
T1 construct: HIS-SOS1cat (160 nM; Cytoskeleton, US); His (N); purchased Cytoskeleton
T1 sequence (Q07889 564-1049 limits assumed): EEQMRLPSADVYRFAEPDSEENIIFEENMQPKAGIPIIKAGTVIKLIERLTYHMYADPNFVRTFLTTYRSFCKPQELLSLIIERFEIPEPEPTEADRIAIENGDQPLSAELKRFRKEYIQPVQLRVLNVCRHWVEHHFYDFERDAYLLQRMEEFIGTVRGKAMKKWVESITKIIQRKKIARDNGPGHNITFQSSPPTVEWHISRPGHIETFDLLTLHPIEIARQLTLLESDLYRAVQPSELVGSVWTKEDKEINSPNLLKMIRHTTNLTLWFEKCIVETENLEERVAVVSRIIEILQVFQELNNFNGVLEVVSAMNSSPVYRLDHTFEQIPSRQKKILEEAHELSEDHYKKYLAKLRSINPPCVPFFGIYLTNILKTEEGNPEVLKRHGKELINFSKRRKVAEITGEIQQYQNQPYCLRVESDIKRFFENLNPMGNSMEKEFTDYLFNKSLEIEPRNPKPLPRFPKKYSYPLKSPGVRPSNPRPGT

[2] = target: T2, KRAS G12C::SOS1 (Homo sapiens, UniProt Q07889); assay: KRAS G12C::SOS1 protein-protein interaction (PPI) inhibition assay (HTRF); assay type: binding; settings: 8 concentrations from 3 µM, three replicates; read-out: KRAS G12C::SOS1 PPI
T2 construct: purchased CISBIO 64KRASG12PEH
T2 sequence (Q07889 1-1333): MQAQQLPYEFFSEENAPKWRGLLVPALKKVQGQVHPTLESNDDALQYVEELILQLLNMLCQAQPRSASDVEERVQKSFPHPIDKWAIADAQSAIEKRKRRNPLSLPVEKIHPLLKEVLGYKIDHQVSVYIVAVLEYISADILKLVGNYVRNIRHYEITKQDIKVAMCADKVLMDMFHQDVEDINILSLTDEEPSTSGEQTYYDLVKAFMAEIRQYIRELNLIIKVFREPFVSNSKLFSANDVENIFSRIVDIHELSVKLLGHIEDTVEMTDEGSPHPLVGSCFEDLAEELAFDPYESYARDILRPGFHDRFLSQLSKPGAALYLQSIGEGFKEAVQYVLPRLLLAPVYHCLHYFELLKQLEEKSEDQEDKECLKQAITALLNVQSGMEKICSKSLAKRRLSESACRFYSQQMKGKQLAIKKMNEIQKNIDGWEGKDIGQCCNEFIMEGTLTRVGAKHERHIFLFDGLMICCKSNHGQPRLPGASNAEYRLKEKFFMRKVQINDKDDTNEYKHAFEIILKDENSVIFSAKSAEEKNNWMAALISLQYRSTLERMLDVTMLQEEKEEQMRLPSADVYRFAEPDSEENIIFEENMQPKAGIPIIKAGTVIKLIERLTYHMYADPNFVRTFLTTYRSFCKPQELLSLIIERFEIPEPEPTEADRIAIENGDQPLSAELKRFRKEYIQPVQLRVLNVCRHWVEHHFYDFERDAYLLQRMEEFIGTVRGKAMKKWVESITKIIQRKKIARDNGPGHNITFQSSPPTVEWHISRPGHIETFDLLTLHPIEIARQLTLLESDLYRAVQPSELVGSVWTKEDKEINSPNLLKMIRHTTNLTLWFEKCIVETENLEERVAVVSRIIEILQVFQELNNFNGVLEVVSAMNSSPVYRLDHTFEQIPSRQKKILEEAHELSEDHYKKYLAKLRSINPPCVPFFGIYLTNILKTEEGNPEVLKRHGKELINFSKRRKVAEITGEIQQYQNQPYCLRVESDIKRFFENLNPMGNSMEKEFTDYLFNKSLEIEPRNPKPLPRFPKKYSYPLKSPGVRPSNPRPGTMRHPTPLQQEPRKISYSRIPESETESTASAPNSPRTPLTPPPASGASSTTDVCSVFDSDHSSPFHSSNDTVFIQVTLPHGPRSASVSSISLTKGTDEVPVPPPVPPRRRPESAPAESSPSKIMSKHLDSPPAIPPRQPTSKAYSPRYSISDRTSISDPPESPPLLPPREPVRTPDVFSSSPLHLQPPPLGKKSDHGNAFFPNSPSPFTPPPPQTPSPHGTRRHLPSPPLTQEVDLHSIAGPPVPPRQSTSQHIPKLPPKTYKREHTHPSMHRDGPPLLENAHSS
Procedure, shortened: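 Compounds, at eight 3-fold dilutions from 3 µM, were mixed with GTP-loaded Tag1-KRAS G12C, Tag2-SOS1 and a terbium-cryptate donor plus XL665 acceptor antibody pair. After 2 h at room temperature, time-resolved FRET reported the KRAS–SOS1 interaction.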

[3] = test system: lung cancer cell line NCI-H358 having the KRAS G12C variant; assay: Cancer cell growth inhibition, 3D spheroids (CellTiter-Glo 3D); assay type: cell-based; settings: 3D spheroids, 0.002-10 µM, 5 days, read-out: H358 cell viability
Experimental: Thereafter, the plate with the cells cultured was adapted to room temperature for 10 minutes, and then 50 µL of CellTiter-Glo® 3D Cell Viability Assay (PROMEGA, G9683) solution was dispensed, and reacted on a horizontal stirrer at a speed of 300 RPM for 30 minutes to induce the cell lysis. […] Thereafter, based on the measured values, the degree of cell growth in the well treated with each compound was calculated when the final cell density value of the well not treated with the test substance was set to 100%.

Compound | IC50 [1] [nM] | IC50 [2] [nM] | IC50 ([3]; Homo sapiens, NCI-H358, 120 h) [nM] | IC50 [3] [nM]
Cc1cc(C(=O)N[C@H](C)c2cccc(C(F)(F)CO)c2F)nn(-c2cncc(-c3cnnn3C3CC3)c2)c1=O [Example 1-40, N-{(R)-1-[3-(1,1-difluoro-2-hydroxyethyl)-2-fluorophenyl]ethyl}-1-[5-(1-cyclopropyl-1H-1,2,3-triazol-5-yl)-3-pyridyl]-5-methyl-6-oxo-1,6-dihydropyridazine-3-carboxamide] | < 50 | < 50 | < 1000 | 
Cc1cc(C(=O)N[C@H](C)c2cccc(C(F)F)c2F)nn(-c2cncc(-c3cnnn3C)c2)c1=O [Example 1-15, N-[(1R)-1-[3-(difluoromethyl)-2-fluoro-phenyl]ethyl]-5-methyl-1-[5-(3-methyltriazol-4-yl)-3-pyridyl]-6-oxo-pyridazine-3-carboxamide] | < 50 | < 50 | < 1000 | 
C[C@@H](NC(=O)c1ccc(=O)n(-c2cncc(-c3cnnn3C3CCC3)c2)n1)c1cccc(C(F)(F)F)c1F [Example 1-54, N-[(1R)-1-[2-fluoro-3-(trifluoromethyl)phenyl]ethyl]-1-[5-(1-cyclobutyl-1H-1,2,3-triazol-5-yl)-3-pyridyl]-6-oxo-pyridazine-3-carboxamide] | < 50 | 50 to 150 | < 1000 | 
[2H]C([2H])([2H])n1nncc1-c1cncc(-n2nc(C(=O)N[C@H](C)c3cccc(C(F)(F)CO)c3F)ccc2=O)c1 [Example 1-7, N-[(1R)-1-[3-(1,1-difluoro-2-hydroxy-ethyl)-2-fluoro-phenyl]ethyl]-6-oxo-1-[5-[3-(trideuteriomethyl)triazol-4-yl]-3-pyridyl]pyridazine-3-carboxamide] | < 50 | < 50 | < 1000 | 
Cc1ncc(-n2nc(C(=O)N[C@H](C)c3cccc(C(F)(F)F)c3F)ccc2=O)cc1-c1cnnn1C [Example 1-26, N-[(1R)-1-[2-fluoro-3-(trifluoromethyl)phenyl]ethyl]-1-[6-methyl-5-(3-methyltriazol-4-yl)-3-pyridyl]-6-oxo-pyridazine-3-carboxamide] | 50 to 150 | 50 to 150 | < 1000 | 
CCc1cc(C(=O)N[C@H](C)c2cccc(C(F)(F)CO)c2F)nn(-c2cncc(-c3cnnn3C3CC3)c2)c1=O [Example 1-42, N-{(R)-1-[3-(1,1-difluoro-2-hydroxyethyl)-2-fluorophenyl]ethyl}-1-[5-(1-cyclopropyl-1H-1,2,3-triazol-5-yl)-3-pyridyl]-5-ethyl-6-oxo-1,6-dihydropyridazine-3-carboxamide] | < 50 | < 50 | < 1000 | 
C[C@@H](NC(=O)c1ccc(=O)n(-c2cncc(-c3cnnn3C)c2)n1)c1cccc(C(C)(F)F)c1F [Example 1-11, N-[(1R)-1-[3-(1,1-difluoroethyl)-2-fluoro-phenyl]ethyl]-1-[5-(3-methyltriazol-4-yl)-3-pyridyl]-6-oxo-pyridazine-3-carboxamide] | 50 to 150 | 50 to 150 | < 1000 | 
CCn1nncc1-c1cncc(-n2nc(C(=O)N[C@H](C)c3cccc(C(F)(F)F)c3F)cc(C)c2=O)c1 [Example 1-25, 1-[5-(3-ethyltriazol-4-yl)-3-pyridyl]-N-[(1R)-1-[2-fluoro-3-(trifluoromethyl)phenyl]ethyl]-5-methyl-6-oxo-pyridazine-3-carboxamide] | < 50 | 50 to 150 | < 1000 | 
N-[(1R)-1-[5-amino-3-(difluoromethyl)-2-fluoro-phenyl]ethyl]-5-methyl-1-[5-(3-methyltriazol-4-yl)-3-pyridyl]-6-oxo-pyridazine-3-carboxamide [Example 2-3] | < 50 | < 50 |  | < 1000
Cc1ncc(-n2nc(C(=O)N[C@H](C)c3cccc(C(F)(F)CO)c3F)ccc2=O)cc1-c1cnnn1C [Example 1-29] | 50 to 150 | < 50 | < 1000 | 
C[C@@H](NC(=O)c1ccc(=O)n(-c2cncc(-c3cnnn3C3CC3)c2)n1)c1cccc(C(F)(F)F)c1F [Example 1-50, N-[(1R)-1-[2-fluoro-3-(trifluoromethyl)phenyl]ethyl]-1-[5-(1-cyclopropyl-1H-1,2,3-triazol-5-yl)-3-pyridyl]-6-oxo-pyridazine-3-carboxamide] | < 50 | < 50 | < 1000 | 

Results, then the compound that gave them:

IC50 [1] [nM] | IC50 [2] [nM] | IC50 ([3]; Homo sapiens, NCI-H358, 120 h) [nM] | IC50 [3] [nM] | Compound
50 to 150 | 50 to 150 | < 1000 |  | [2H]C([2H])([2H])c1cc(C(=O)N[C@H](C)c2cccc(C(F)(F)F)c2F)nn(-c2cncc(-c3cnnn3C)c2)c1=O [Example 7-1, N-{(R)-1-[2-fluoro-3-(trifluoromethyl)phenyl]ethyl}-5-[methyl-trideuterio]-1-[5-(1-methyl-1H-1,2,3-triazol-5-yl)-3-pyridyl]-6-oxo-1,6-dihydropyridazine-3-carboxamide]
50 to 150 | < 50 | < 1000 |  | Cc1cc(C(=O)N[C@H](C)c2cccc(C(F)(F)F)c2F)nn(-c2cncc(-c3cnnn3C)c2)c1=O [Example 7-3, N-{ (R)-1-[2-fluoro-3-(trifluoromethyl)phenyl]ethyl}-5-methyl-1-[5-(1-methyl-1H-1,2,3-triazol-5-yl)-3-pyridyl]-6-oxo-1,6-dihydropyridazine-3-carboxamide]
> 150 | > 150 | 1000 to 3000 |  | C[C@@H](NC(=O)c1cc(C2=CCCCC2)c(=O)n(-c2cncc(-c3cnnn3C)c2)n1)c1cccc(C(F)(F)F)c1F [Example 1-64, N-{(R)-1-[2-fluoro-3-(trifluoromethyl)phenyl]ethyl}-5-(1-cyclohexen-1-yl)-1-[5-(1-methyl-1H-1,2,3-triazol-5-yl)-3-pyridyl]-6-oxo-1,6-dihydropyridazine-3-carboxamide]
< 50 | < 50 | < 1000 |  | [2H]C([2H])([2H])n1nncc1-c1cncc(-n2nc(C(=O)N[C@H](C)c3cc(N)cc(C(F)(F)F)c3)ccc2=O)c1 [Example 1-58]
< 50 | < 50 | < 1000 |  | C[C@@H](NC(=O)c1cc(C2=CCCCC2)c(=O)n(-c2cncc(-c3cnnn3C)c2)c1)c1cccc(C(F)(F)F)c1F [Example 15, N-{(R)-1-[2-fluoro-3-(trifluoromethyl)phenyl]ethyl}-5-(1-cyclohexen-1-yl)-5'-(1-methyl-1H-1,2,3-triazol-5-yl)-6-oxo-1H-[1,3'-bipyridyl]-3-carboxamide]

Source: patent publication EP4667464A1 (Cyrus Therapeutics Inc., priority 2023, dated 2024)
